# Laboratory results taken from patent US20090176804A1, “2-PHENYL-INDOLES AS PROSTAGLANDIN D2 RECEPTOR ANTAGONISTS” (priority 2006, published 2009).
# Molecular target: T1, DP receptor (Homo sapiens, UniProt Q13258)
# T1 construct: the human cell line LS174T, which expresses the endogenous DP receptor; endogenous in cells; host or cells: LS174T (human cell line)
# T1 sequence (Q13258 1-359): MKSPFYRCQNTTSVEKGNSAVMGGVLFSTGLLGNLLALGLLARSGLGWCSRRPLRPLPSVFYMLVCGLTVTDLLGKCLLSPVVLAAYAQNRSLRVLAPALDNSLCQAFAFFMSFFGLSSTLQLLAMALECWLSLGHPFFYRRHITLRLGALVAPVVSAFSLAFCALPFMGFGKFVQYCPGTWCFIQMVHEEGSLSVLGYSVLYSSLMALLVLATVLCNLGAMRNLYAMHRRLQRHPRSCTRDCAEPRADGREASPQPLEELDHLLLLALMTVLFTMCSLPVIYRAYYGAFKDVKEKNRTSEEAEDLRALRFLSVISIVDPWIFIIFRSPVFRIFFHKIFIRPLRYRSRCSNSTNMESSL
# Test: SPA cAMP assay in human LS174 T cells (human DP functional assay)
# Type: cell-based
# Details: concentration of the compound producing 50% inhibition in the SPA cAMP assay in human LS174 T cells; PGD2 15 nM final
# Source text: As used in the examples and preparations that follow, as well as the rest of the application, the terms used therein shall have the meanings indicated: “kg” refers to kilograms, “g” refers to grams, “mg” refers to milligrams, “μg” refers to micrograms, “mol” refers to moles, “mmol” refers to millimoles, “M” refers to molar, “mM” refers to millimolar, “μM” refers to micromolar, “nM” refers to nanomolar, “L” refers to liters, “mL” or “ml” refers to milliliters, “μL” refers to microliters, “° C.” refers to degrees Celsius, “mp” or “m.p.” refers to melting point, “bp” or “b.p.” refers to boiling point, “mm of Hg” refers to pressure in millimeters of mercury, “cm” refers to centimeters, “nm” refers to nanometers, “abs.” refers to absolute, “conc.” refers to concentrated, “c” refers to concentration in g/mL, “rt” refers to room temperature, “TLC” refers to thin layer chromatography, “HPLC” refers to high performance liquid chromatography, “i.p.” refers to intraperitoneally, “i.v.” refers to intravenously, “s”=singlet, “d”=doublet; “t”=triplet; “q”=quartet; “m”=multiplet, “dd”=doublet of doublets; “br”=broad, “LC”=liquid chromatograph, “MS”=mass spectrograph, “ESI/MS”=electrospray ionization/mass spectrograph, “RT”=retention time, “M”=molecular ion, “PSI”=pounds per square inch, “DMSO”=dimethyl sulfoxide, “DMF”=N,N-dimethylformamide, “CDI”=1,1′-carbonyldiimidazole, “DCM” or “CH2Cl2”=dichloromethane, “HCl”=hydrochloric acid, “SPA”=Scintillation Proximity Assay, “ATTC”=American Type Culture Collection, “FBS”=Foetal Bovine Serum, “MEM”=Minimal Essential Medium, “CPM”=Counts Per Minute, “EtOAc”=ethyl acetate, “PBS”=Phosphate Buffered Saline, “TMD”=transmembrane domain, “IBMX”=3-isobutyl-1-methylxanthine, “cAMP”=cyclic adenosine monophosphate, “IUPAC”=International Union of Pure and Applied Chemistry, “MHz”=megahertz, “PEG”=polyethylene glycol, “MeOH”=methanol, “N”=normality, “THF”=tetrahydrofuran, “h”=hours, “min”=minute(s), “MeNH2”=methyl amine, “N2”=nitrogen gas, “iPrOH”=isopropyl alcohol, “O.D.”=outer diameter, “MeCN” or “CH3CN”=acetonitrile, “Et2O”=ethyl ether, “TFA”=TFA, “Prep LC”=preparatory “flash” liquid chromatography, “SPE”=solid phase extraction, “LAH”=lithium aluminum hydride, “pmol”=picomolar, “heptane”=n-heptane, “HMBA-AM” resin=4-hydroxymethylbenzoic acid amino methyl resin, “PdCl2(dppf)2”=1,1′-bis(diphenylphosphino)ferrocene-palladium (II) dichloride DCM complex, “HBTU”=2-(1H-benzotriazol-1yl)-1,1,3,3-tetramethyluronium hexafluorophosphate, “DIEA”=diisopropylethylamine, “CsF”=cesium fluoride, “LiOH”=lithium hydroxide, “˜”=approximately, “IC50”=the concentration of the compound producing 50% inhibition in the SPA cAMP assay in human LS174 T cells.
# The inhibitory effects of the compounds according to the invention are assessed in a human DP functional assay. A cAMP assay is employed using the human cell line LS174T, which expresses the endogenous DP receptor. The protocol is similar to that described previously (Wright D H, Ford-Hutchinson A W, Chadee K, Metters K M, The human prostanoid DP receptor stimulates mucin secretion in LS174T cells, Br J Pharmacol. 131(8):1537-45 (2000)).
# Protocol for SPA cAMP Assay in Human LS174 T Cells
# • PGD2 (Cayman Chemical Cat#12010) • IBMX (Sigma Cat# 5879) • cAMP SPA direct screening assay system (Amersham code RPA 559) • 96-well cell plates (Wallac Cat#1450-516) • Wallac 1450 Microplate Trilux scintillation counter (PerkinElmer) • Plate sealers • Eppendorf tubes • Dulbecco's Phosphate-Buffered Saline (PBS) (Invitrogen Cat#14040-133) • Distilled water • Vortex • Magnetic stirrer and stirrer bars
# Add 50 μL of […] IBMX into 100 mL PBS to make a final concentration of 100 μM and sonicate at 30° C. for 20 minutes.
# Dissolve 1 mg PGD2 (FW, 352.5) in 284 μL DMSO to make 10 mM stock solution and store at […]. Before each assay, it is freshly prepared. Add 3 μL of 10 mM stock solution to […], mix it thoroughly, and transfer 10 mL to 40 mL PBS. […]
row,SMILES,IC50
1,"O=C(O)Cc1c(-c2ccc(Cl)c(S(=O)(=O)NCc3ccc(Cl)cc3Cl)c2)[nH]c2ccccc12 [Example 1(a), {2-[4-Chloro-3-(2,4-dichloro-benzylsulfamoyl)-phenyl]-1H-indol-3-yl}-acetic Acid]",4 nM
2,"O=C(O)Cc1c(-c2ccc(Cl)c(S(=O)(=O)NCc3c(Cl)cccc3Cl)c2)[nH]c2ccccc12 [Example 1(b), {2-[4-Chloro-3-(2,6-dichloro-benzylsulfamoyl)-phenyl]-1H-indol-3-yl}-acetic Acid]",3 nM
3,"O=C(O)Cc1c(-c2ccc(Cl)c(S(=O)(=O)NCc3cc(Cl)cc(Cl)c3)c2)[nH]c2ccccc12 [Example 1(c), {2-[4-Chloro-3-(3,5-dichloro-benzylsulfamoyl)-phenyl]-1H-indol-3-yl}-acetic Acid]",12 nM
4,"O=C(O)Cc1c(-c2ccc(Cl)c(S(=O)(=O)NCCc3ccc(Cl)cc3Cl)c2)[nH]c2ccccc12 [Example 1(d), (2-{4-Chloro-3-[2-(2,4-dichloro-phenyl)-ethylsulfamoyl]-phenyl}-1H-indol-3-yl)-acetic Acid]",2 nM
5,"COc1ccccc1CCNS(=O)(=O)c1cc(-c2[nH]c3ccccc3c2CC(=O)O)ccc1Cl [Example 2(a), (2-{4-Chloro-3-[2-(2-methoxy-phenyl)-ethylsulfamoyl]-phenyl}-1H-indol-3-yl)-acetic Acid]",3.8 nM
6,"COc1cccc(CCNS(=O)(=O)c2cc(-c3[nH]c4ccccc4c3CC(=O)O)ccc2Cl)c1 [Example 2(b), (2-{4-Chloro-3-[2-(3-methoxy-phenyl)-ethylsulfamoyl]-phenyl}-1H-indol-3-yl)-acetic Acid]",3.3 nM
7,"COc1ccc(CCNS(=O)(=O)c2cc(-c3[nH]c4ccccc4c3CC(=O)O)ccc2Cl)cc1 [Example 2(c), (2-{4-Chloro-3-[2-(4-methoxy-phenyl)-ethylsulfamoyl]-phenyl}-1H-indol-3-yl)-acetic Acid]",3 nM
8,"O=C(O)Cc1c(-c2ccc(Cl)c(S(=O)(=O)NCCc3ccccc3OC(F)(F)F)c2)[nH]c2ccccc12 [Example 2(d), (2-{4-Chloro-3-[2-(2-trifluoromethoxy-phenyl)-ethylsulfamoyl]-phenyl}-1H-indol-3-yl)-acetic Acid]",20 nM
9,"O=C(O)Cc1c(-c2ccc(Cl)c(S(=O)(=O)NCCCc3ccccc3)c2)[nH]c2ccccc12 [Example 2(f), {2-[4-Chloro-3-(3-phenyl-propylsulfamoyl)-phenyl]-1H-indol-3-yl}-acetic Acid]",7 nM
10,"CNC(=O)Cc1c(-c2ccc(Cl)c(S(=O)(=O)NC3CCCCC3)c2)[nH]c2ccccc12 [Example 3, 2-[2-(4-Chloro-3-cyclohexylsulfamoyl-phenyl)-1H-indol-3-yl]-N-methyl-acetamide]",509 nM
11,"O=C(O)Cc1c(-c2ccc(Cl)c(S(=O)(=O)NC3CCCCC3)c2)[nH]c2cccc(Cl)c12 [Example 4, [4-Chloro-2-(4-chloro-3-cyclohexylsulfamoyl-phenyl)-1H-indol-3-yl]-acetic Acid]",0.2 nM
12,"O=C(O)Cc1c(-c2ccc(Cl)c(S(=O)(=O)NC3CCCCC3)c2)[nH]c2cccc(F)c12 [Example 6, [2-(4-Chloro-3-cyclohexylsulfamoyl-phenyl)-4-fluoro-1H-indol-3-yl]-acetic Acid]",0.7 nM
13,"Cc1cccc2[nH]c(-c3ccc(Cl)c(S(=O)(=O)NC4CCCCC4)c3)c(CC(=O)O)c12 [Example 7, [2-(4-Chloro-3-cyclohexylsulfamoyl-phenyl)-4-methyl-1H-indol-3-yl]-acetic Acid]",1.5 nM
14,"O=C(O)Cc1c(-c2ccc(Cl)c(S(=O)(=O)NC3CCCCC3)c2)[nH]c2c(Cl)cccc12 [Example 8, [7-Chloro-2-(4-chloro-3-cyclohexylsulfamoyl-phenyl)-1H-indol-3-yl]-acetic Acid]",3.7 nM
15,"CS(=O)(=O)NC(=O)Cc1c(-c2ccc(Cl)c(S(=O)(=O)NC3CCCCC3)c2)[nH]c2ccccc12 [Example 9, 2-Chloro-N-cyclohexyl-5-[3-(2-methanesulfonylamino-2-oxo-ethyl)-1H-indol-2-yl]-benzenesulfonamide]",2 nM

# Results, then the compound that gave them:
row,IC50,SMILES
1,2.7 nM,"CCS(=O)(=O)NC(=O)Cc1c(-c2ccc(Cl)c(S(=O)(=O)NC3CCCCC3)c2)[nH]c2ccccc12 [Example 10, 2-Chloro-N-cyclohexyl-5-[3-(2-ethanesulfonylamino-2-oxo-ethyl)-1H-indol-2-yl]-benzenesulfonamide]"
2,14 nM,"O=C(Cc1c(-c2ccc(Cl)c(S(=O)(=O)NC3CCCCC3)c2)[nH]c2ccccc12)NS(=O)(=O)C(F)(F)F [Example 11, 2-Chloro-N-cyclohexyl-5-[3-(2-oxo-2-trifluoromethanesulfonylamino-ethyl)-1H-indol-2-yl]-benzenesulfonamide]"
3,15 nM,"O=C(Cc1c(-c2ccc(Cl)c(S(=O)(=O)NC3CCCCC3)c2)[nH]c2ccccc12)Nc1nnn[nH]1 [Example 12, 2-[2-(4-Chloro-3-cyclohexylsulfamoyl-phenyl)-1H-indol-3-yl]-N-(1H-tetrazol-5-yl)-acetamide]"
4,0.5 nM,"CCc1ccc(-c2[nH]c3ccccc3c2CC(=O)O)cc1S(=O)(=O)NC1CCCCC1 [Example 13, [2-(3-cyclohexylsulfamoyl-4-ethyl-phenyl)-1H-indol-3-yl]-acetic Acid]"
5,5.3 nM,"CC(C(=O)O)c1c(-c2ccc(Cl)c(S(=O)(=O)NC3CCCCC3)c2)[nH]c2ccccc12 (stereo not shown) [Example 14, 2-[2-(4-Chloro-3-cyclohexylsulfamoyl-phenyl)-1H-indol-3-yl]-propionic Acid]"
6,106 nM,"O=C(O)Cc1c(-c2ccc(Cl)c(S(=O)(=O)Cc3cccc(Cl)c3)c2)[nH]c2ccccc12 [Example 15, {2-[4-Chloro-3-(3-chloro-phenylmethanesulfonyl)-phenyl]-1H-indol-3-yl}-acetic Acid]"
7,12 nM,"O=C(O)Cc1c(-c2ccc(Cl)c(NS(=O)(=O)Cc3cccc(Cl)c3)c2)[nH]c2ccccc12 [Example 16, {2-[4-Chloro-3-(3-chloro-phenylmethanesulfonylamino)-phenyl]-1H-indol-3-yl}-acetic Acid]"
